According to patent US20060166869A1, “Novel use of lipopeptide preparations” (priority 2002, published 2006):
Where two headings read alike, the source gives them in different places.

How the values were obtained:
SIV tilted peptide = target: T1, SIV tilted peptide (Simian immunodeficiency virus, UniProt P05885); format: biochemical; details: for concentration at which inhibition is complete: Tris NaCl buffer pH 7.4, SIV tilted peptide 0.966 μM (FIG. 6); for concentration at which complete (or nearly complete) inhibition of fusion is reached: Tris NaCl buffer pH 8.0, SIV tilted peptide 0.966 μM (FIG. 2); for inhibition of LUV fusion: Tris NaCl buffer pH 7.4, SIV tilted peptide 0.966 μM
T1 construct: SIV; 12; 528-539; GVFVLGFLGFLA; purchased SYNT:EM (Nimes, France)

[1] = target: T2, Bordetella pertussis tilted peptide (Bordetella pertussis, UniProt P12255); format: biochemical; details: charged LUV, Tris NaCl buffer pH 7.4, Bordetella pertussis tilted peptide 2.42 μM (FIG. 8)
T2 construct: purchased EPYTOP (Nimes, France)
From the text: A number of different systems have been developed to assay peptide membrane fusion activity. Large unilamellar vesicles (LUV) are appropriate model for biological membrane fusion. Their curvature and their stability mimic suitably the cell membrane. Several different techniques for detecting and quantifying vesicle fusion are in common use. These include fluorescence assays that monitor fusion-induced lipid mixing between the two lipid bilayers of the membranes by observing the increase of fluorescence of a probe included in a part of vesicles in mixture. The dilution of the probe by fusion of the two bilayers from the two categories of vesicles causes a decrease of the self-quenching phenomenon leading to an increase of the fluorescence intensity.
Two sets of LUV are prepared: LUV with fluorescent probe (labelled LUV) and free probe LUV (unlabelled LUV). The probe used is the octadecyl rhodamine chloride (R18) (Molecular probes, Eugene, Oreg.).
The first step is the preparation of large multilamellar vesicles. For this, a mixing of different lipids is operated in a round bottomed Büchi flask. […]
Vesicles fusion is determined by measuring the fluorescence intensity change resulting from the fluorescence of the R18 probe. Fluorescence is monitored using fluorimeter LS-50B Perkin-Elmer (Norwalk, Conn. USA). […]

[2] = uncharged LUV, Tris buffer without NaCl pH 8.0, SIV tilted peptide 0.966 μM (FIG. 5)

Substance	concentration at which inhibition is complete (SIV tilted peptide; charged LUV) [µM]	concentration at which complete (or nearly complete) inhibition of fusion is reached (SIV tilted peptide; charged LUV) [µM]	concentration at which the fusogenic effect is inhibited completely [1] [µM]	other results
cyclic surfactin with an iso-branched β-hydroxyled fatty acid chain containing 15 carbon atoms [SC15]	~2.4	~2.4	~4.8	concentration at which fusion is completely inhibited (SIV tilted peptide; uncharged LUV, Tris NaCl buffer pH 8.0, SIV tilted peptide 0.966 μM (FIG. 4)): ~3.2 µM; antifusogenic activity in absence of NaCl compared with Tris NaCl buffer (SIV tilted peptide; [2]): slightly improved; concentration at which complete inhibition is reached (SIV tilted peptide; [2]): ~2 µM
cyclic surfactin with an iso-branched β-hydroxyled fatty acid chain containing 13 carbon atoms [SC13]	–	> 4.8	–	–
lysophosphatidylcholine [reference compound]	–	–	–	effect on the fusion percentage (SIV tilted peptide; charged LUV, Tris NaCl buffer pH 8.0, agent at concentrations below 1 μM (FIG. 2)): no effect at all; antifusogenic activity (SIV tilted peptide; charged LUV, Tris NaCl buffer pH 8.0, agent at concentrations between 1 and 2 μM (FIG. 2)): < 50%
cyclic fengycin A with a β-hydroxyled fatty acid chain containing 16 carbon atoms [FAC16]	~2.4	~1	~1.61	inhibition of LUV fusion (SIV tilted peptide; charged LUV, agent at 0.8 μM (FIG. 6)): 90%
cyclic surfactin with a linear β-hydroxyled fatty acid chain containing 14 carbon atoms [SC14]	–	~2.4	–	–
linear surfactin, with an linear β-hydroxylated fatty acid chain containing 14 carbon atoms and with a linear peptide part [LSC14]	–	–	–	inhibition of LUV fusion (SIV tilted peptide; charged LUV, agent at concentration near 2 μM (FIG. 6)): 60%
